Laboratory results from US8841456B2, “1,5-naphthyridine derivative or salt thereof” (FUJIFILM Corporation, priority 2011, dated 2014).
Where two headings read alike, the source gives them in different places.

Assays:
human PI3Kα protein = target: T1, human PI3Kα protein (Homo sapiens, UniProt P42336); experiment: PI3Kα enzyme assay (ADP-Glo kinase assay); type: biochemical; settings: 3 nM PI3Kα, 50 μM PIP2, 100 μM ATP
T1 construct: purchased Carna Biosciences, Inc; host or cells: Baculovirus expression system
Method: Evaluation of the PI3Kα inhibitory activity of the compound of the present invention was carried out according to the method as described below.
For the PI3Kα enzyme assay, biotinylated product of a human PI3Kα protein produced using a Baculovirus expression system (Carna Biosciences, Inc.) was used. Further, for the detection of the enzyme activity, an ADP-Glo kinase assay (PROMEGA Corporation) was used.
10 μL of a reaction solution (3 nM PI3Kα, 40 mM Tris-HCl, 20 mM MgCl2, 0.1% BSA, pH 7.5) including the human PI3Kα protein and a test compound at a predetermined concentration was incubated at room temperature for 15 minutes. Thereafter, 5 μL of a mixed solution of L-α-Phosphatidylinositol 4,5-diphosphate (PIP2) (SIGMA-ALDLICH) which was a substrate and ATP(SIGMA-ALDLICH) was added thereto to a final concentration of 50 μM and 100 μM, respectively, and the reaction solution was further incubated at 25° C. for 60 minutes to carry out an enzyme reaction.
After the reaction, 15 μL of an ADP-Glo reagent (PROMEGA Corporation) was added and the resulting liquid was incubated at room temperature for 60 minutes, whereby the enzyme reaction was stopped. Thereafter, after further adding 30 μL of a Kinase Detection Reagent (PROMEGA Corporation) and standing the resulting solution at room temperature for 40 minutes, ADP produced by the enzyme reaction was quantified by luminescence intensity.
For the measurement of luminescence intensity, EnVision (PerkinElmer, Inc.) was used.
(§1) The inhibitory activity of the compounds was evaluated using an IC50 (50% inhibitory concentration). The IC50 was calculated using XLfit (IDBS).

[1] = target: T2, glutathione S-transferase (GST)-fusion human ERK2 protein (Homo sapiens, UniProt P28482); experiment: ERK2 enzyme assay (LabChip mobility shift); type: biochemical; settings: 2 nM ERK2, 4.25 μM FL-Peptide 8, 43 μM ATP
T2 construct: purchased Carna Biosciences, Inc; host or cells: E. coli expression system
Method: Evaluation of the ERK2 inhibitory activity of the compound of the present invention was carried out according to the method as described below.
For the ERK2 enzyme assay, a glutathione S-transferase (GST)-fusion human ERK2 protein (Carna Biosciences, Inc.) produced using an E. coli expression system was used.
12 μL of the reaction solution (2 nM ERK2, 100 mM Hepes, 10 mM MgCl2, 1.5 mM DTT, 0.003% Brij35, pH 7.5) including the ERK2 protein and a test compound at a predetermined concentration was incubatedat room temperature for 15 minutes. Thereafter, 3 μL of a mixed solution of FL-Peptide 8 (5-FAM-IPTSPITTTYFFFKKK-COOH) (Caliper Lifescience) which was a substrate and ATP(SIGMA-ALDLICH) were added thereto to a final concentration of 4.25 μM and 43 μM, respectively. The reaction solution was further incubated at 25° C. for 120 minutes to carry out an enzyme reaction.
The enzyme reaction was stopped by adding 27 μL of a reaction-stopping solution (100 mM HEPES, 11.2 mM EDTA, 5.6% Brij35, pH 7.5) including a 0.5% Coating reagent 8 (PerkinElmer, Inc.) after the reaction. Thereafter, non-phosphorylated peptides and phosphorylated peptides were separated using LabChip Ez Reader (Caliper LifeScience, Inc.) to quantify the proportion of phosphorylated peptides.
as §1

[2] = IC50 class, read-out: PI3Kα Inhibitory Activity
[3] = IC50 class, read-out: ERK2 Inhibitory Activity

T1 sequence (P42336 whole entry): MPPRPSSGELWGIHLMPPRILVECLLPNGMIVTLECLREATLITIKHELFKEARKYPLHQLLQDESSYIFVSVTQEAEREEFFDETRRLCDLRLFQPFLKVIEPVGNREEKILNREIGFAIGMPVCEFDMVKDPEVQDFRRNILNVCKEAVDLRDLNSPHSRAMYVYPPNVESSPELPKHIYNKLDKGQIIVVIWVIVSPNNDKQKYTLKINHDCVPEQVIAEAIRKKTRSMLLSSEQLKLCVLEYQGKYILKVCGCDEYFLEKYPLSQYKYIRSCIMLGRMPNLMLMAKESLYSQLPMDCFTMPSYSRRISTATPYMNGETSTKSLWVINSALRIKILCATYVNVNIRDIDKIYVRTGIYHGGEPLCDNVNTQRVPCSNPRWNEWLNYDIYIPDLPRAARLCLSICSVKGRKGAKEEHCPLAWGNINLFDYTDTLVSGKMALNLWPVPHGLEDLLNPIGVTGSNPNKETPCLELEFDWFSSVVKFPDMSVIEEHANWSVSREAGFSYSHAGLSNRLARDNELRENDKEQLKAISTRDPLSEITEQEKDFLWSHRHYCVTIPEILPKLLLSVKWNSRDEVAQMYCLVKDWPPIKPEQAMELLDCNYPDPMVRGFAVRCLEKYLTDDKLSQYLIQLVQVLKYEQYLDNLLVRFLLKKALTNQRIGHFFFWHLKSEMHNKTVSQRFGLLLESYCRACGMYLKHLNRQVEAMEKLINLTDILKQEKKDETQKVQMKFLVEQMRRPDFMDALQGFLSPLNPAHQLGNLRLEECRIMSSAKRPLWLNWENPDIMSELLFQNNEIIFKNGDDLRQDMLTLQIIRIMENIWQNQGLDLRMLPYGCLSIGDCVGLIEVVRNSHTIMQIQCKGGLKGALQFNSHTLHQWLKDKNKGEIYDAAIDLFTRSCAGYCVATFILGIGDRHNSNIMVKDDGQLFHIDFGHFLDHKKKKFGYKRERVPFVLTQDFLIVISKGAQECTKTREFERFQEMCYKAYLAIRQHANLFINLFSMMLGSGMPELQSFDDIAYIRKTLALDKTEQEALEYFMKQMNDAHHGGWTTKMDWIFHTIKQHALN
T1 sequence (P27986 whole entry partner): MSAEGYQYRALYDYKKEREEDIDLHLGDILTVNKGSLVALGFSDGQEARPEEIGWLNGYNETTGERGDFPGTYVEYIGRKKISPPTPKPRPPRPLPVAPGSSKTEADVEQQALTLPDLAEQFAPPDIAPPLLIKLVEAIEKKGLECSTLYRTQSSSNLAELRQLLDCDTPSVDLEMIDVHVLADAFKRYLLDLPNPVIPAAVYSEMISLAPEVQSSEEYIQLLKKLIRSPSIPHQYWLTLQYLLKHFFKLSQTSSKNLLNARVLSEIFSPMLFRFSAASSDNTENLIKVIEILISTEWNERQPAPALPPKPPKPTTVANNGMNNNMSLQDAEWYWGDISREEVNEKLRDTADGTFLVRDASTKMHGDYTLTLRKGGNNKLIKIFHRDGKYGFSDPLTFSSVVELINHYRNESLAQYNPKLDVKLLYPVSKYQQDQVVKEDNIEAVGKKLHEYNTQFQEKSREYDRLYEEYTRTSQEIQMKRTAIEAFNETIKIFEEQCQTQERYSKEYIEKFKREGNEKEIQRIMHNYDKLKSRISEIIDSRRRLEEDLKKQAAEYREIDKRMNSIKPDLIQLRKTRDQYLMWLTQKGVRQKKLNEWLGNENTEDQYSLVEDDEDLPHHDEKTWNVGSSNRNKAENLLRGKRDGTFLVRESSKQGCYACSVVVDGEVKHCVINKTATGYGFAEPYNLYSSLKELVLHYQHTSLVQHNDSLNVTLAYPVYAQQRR
T2 sequence (P28482 whole entry, the tested form may be a part): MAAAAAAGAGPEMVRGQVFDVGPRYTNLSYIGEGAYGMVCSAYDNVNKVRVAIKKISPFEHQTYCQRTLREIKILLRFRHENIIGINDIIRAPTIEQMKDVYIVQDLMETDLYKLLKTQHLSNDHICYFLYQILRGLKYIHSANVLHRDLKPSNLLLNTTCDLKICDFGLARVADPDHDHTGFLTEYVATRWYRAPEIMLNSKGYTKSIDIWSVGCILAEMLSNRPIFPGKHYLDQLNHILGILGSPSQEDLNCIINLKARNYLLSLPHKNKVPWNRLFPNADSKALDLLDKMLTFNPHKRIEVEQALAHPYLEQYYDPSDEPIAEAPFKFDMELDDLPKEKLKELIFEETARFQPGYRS

SMILES | IC50 (human PI3Kα protein; [2]) [nM] | IC50 [1, 3] [nM] | IC50 (human PI3Kα protein; read-out: PI3Kα, IC50) [nM] | IC50 ([1]; read-out: ERK2, IC50) [nM]
O=C(Nc1ccc2ncc(-c3cn[nH]c3)cc2n1)NC1CCOCC1 [Compound 0076] | 100 to 1000 | < 100 | – | –
O=C(NC[C@H]1CCCO1)Nc1ccc2ncc(-c3cn[nH]c3)cc2n1 [Compound 0192] | 100 to 1000 | < 100 | – | –
O=C(Nc1ccc2ncc(-c3ccc(F)cc3)cc2n1)NC1CCCC1 [Compound 0020] | 100 to 1000 | < 100 | – | –
CN(C)CCCn1cc(-c2cnc3ccc(NC(=O)NC4(C)CCCC4)nc3c2)cn1 [Compound 0258] | < 100 | 100 to 1000 | – | –
CCCN1CCC(n2cc(-c3cnc4ccc(NC(=O)NC5CCCC5)nc4c3)cn2)CC1 [Compound 0229] | < 100 | 100 to 1000 | – | –
O=C(Nc1ccc2ncc(-c3cn[nH]c3)cc2n1)N[C@@H]1CCC[C@H]1OCc1ccccc1 [Compound 0160] | 1000 to 10000 | < 100 | – | –
O=C(NCCCCc1ccccc1Cl)Nc1ccc2ncc(-c3cn[nH]c3)cc2n1 [Compound 0165] | 100 to 1000 | < 100 | – | –
COCC1(NC(=O)Nc2ccc3ncc(-c4cn[nH]c4)cc3n2)CCC1 [Compound 0196] | 100 to 1000 | 100 to 1000 | – | –
Cc1nc2ccc(NC(=O)NC3CCCC3)nc2cc1-c1cnn(C)c1 [Compound 0236] | 100 to 1000 | > 10000 | – | –
COCCCNC(=O)Nc1ccc2ncc(-c3cn[nH]c3)cc2n1 [Compound 0100] | 100 to 1000 | < 100 | – | –
CN(C)CCCn1cc(-c2cnc3ccc(NC(=O)NC4CCCC4)nc3c2)cn1 [Compound 0210] | < 100 | 100 to 1000 | – | –
CC(C)(C)NC(=O)Nc1ccc2ncc(-c3cnn(CCCN4CCNCC4)c3)cc2n1 [Compound 0164] | < 100 | < 100 | – | –
Cc1c(-c2cnn(C)c2)cnc2ccc(NC(=O)NC3CCCC3)nc12 [Compound 0237] | < 100 | < 100 | – | –
Cc1n[nH]cc1-c1cnc2ccc(NC(=O)NC3CCCC3)nc2c1 [Compound 0043] | < 100 | < 100 | 11 | 7
O=C(NCCCCc1ccccc1)Nc1ccc2ncc(Nc3cn[nH]c3)cc2n1 [Compound 0250] | < 100 | < 100 | – | –
O=C(NCCCc1ccccc1)Nc1ccc2ncc(-c3cn[nH]c3)cc2n1 [Compound 0095] | 100 to 1000 | < 100 | – | –
O=C(Nc1ccc2ncc(-c3cn[nH]c3)cc2n1)NC1CCOC1 (centres unmarked) [Compound 0075] | 100 to 1000 | < 100 | – | –
COc1cc(-c2cnc3ccc(NC(=O)NC4CCCC4)nc3c2)cnc1OC [Compound 0014] | 100 to 1000 | 100 to 1000 | – | –
O=C(NCC1CCOC1)Nc1ccc2ncc(-c3cn[nH]c3)cc2n1 (centres unmarked) [Compound 0197] | 100 to 1000 | < 100 | – | –
O=C(NCC1CCCCC1)Nc1ccc2ncc(-c3cn[nH]c3)cc2n1 [Compound 0063] | 100 to 1000 | < 100 | – | –
O=C(NCCCCN1CCCC1)Nc1ccc2ncc(-c3cn[nH]c3)cc2n1 [Compound 0177] | > 10000 | 100 to 1000 | – | –
O=C(Nc1ccc2ncc(-c3ccc(CO)cc3)cc2n1)NC1CCCC1 [Compound 0042] | 100 to 1000 | < 100 | – | –
COc1ccc(-c2cnc3ccc(NC(=O)NC4CCCC4)nc3c2)cc1OC [Compound 0002] | < 100 | < 100 | 84 | 42
CCCC(C)(C)NC(=O)Nc1ccc2ncc(-c3cn[nH]c3)cc2n1 [Compound 0184] | < 100 | < 100 | – | –
CC(CCc1ccccc1)NC(=O)Nc1ccc2ncc(-c3cnn(CCCN4CCOCC4)c3)cc2n1 (centres unmarked) [Compound 0179] | < 100 | < 100 | – | –
O=C(NCCCCC1CCCCC1)Nc1ccc2ncc(-c3cnn(CCCN4CCOCC4)c3)cc2n1 [Compound 0178] | 100 to 1000 | 100 to 1000 | – | –

SMILES | IC50 (human PI3Kα protein; [2]) [nM] | IC50 [1, 3] [nM] | IC50 (human PI3Kα protein; read-out: PI3Kα, IC50) [nM] | IC50 ([1]; read-out: ERK2, IC50) [nM]
CN(CCCNC(=O)Nc1ccc2ncc(-c3cn[nH]c3)cc2n1)c1ccccc1 [Compound 0105] | 100 to 1000 | < 100 | – | –
O=C(Nc1ccc2ncc(C(=O)N3CCOCC3)cc2n1)NC1CCCC1 [Compound 0141] | > 10000 | > 10000 | – | –
Cc1noc(C)c1-c1cnc2ccc(NC(=O)NC3CCCC3)nc2c1 [Compound 0050] | 100 to 1000 | 100 to 1000 | – | –
O=C(Nc1ccc2ncc(-c3cnn(CCN4CCOCC4)c3)cc2n1)NS(=O)(=O)c1ccccc1 [Compound 0208] | > 10000 | > 10000 | – | –
O=C(Nc1ccc2ncc(-c3cnn(CCCN4CCOCC4)c3)cc2n1)N[C@@H]1CCN(Cc2ccccc2)C1 [Compound 0175] | 100 to 1000 | < 100 | – | –
O=C(Nc1ccc2ncc(-c3cn[nH]c3)cc2n1)NC1CCCC1 [Compound 0137] | < 100 | < 100 | 10 | 7
Cn1cncc1-c1cnc2ccc(NC(=O)NC3CCCC3)nc2c1 [Compound 0238] | 100 to 1000 | < 100 | – | –
COc1cccc(CCCCNC(=O)Nc2ccc3ncc(-c4cn[nH]c4)cc3n2)c1 [Compound 0169] | 100 to 1000 | < 100 | – | –
O=C(Nc1ccc2ncc(-c3cn[nH]c3)cc2n1)N[C@@H]1CC[C@H](CF)C1 [Compound 0200] | < 100 | < 100 | – | –
C[C@H](C[C@H](C)Oc1ccccc1)NC(=O)Nc1ccc2ncc(-c3cn[nH]c3)cc2n1 [Compound 0170] | 100 to 1000 | < 100 | – | –
O=C(Nc1ccc2ncc(-c3cnn(CC4CNC4)c3)cc2n1)NC1CCCC1 [Compound 0146] | < 100 | < 100 | – | –
O=C(Nc1ccc2ncc(-c3cnn(CCCCN4CCOCC4)c3)cc2n1)NC1CCCC1 [Compound 0207] | < 100 | < 100 | – | –
O=C(NCCCN1CCOCC1)Nc1ccc2ncc(-c3cn[nH]c3)cc2n1 [Compound 0201] | 1000 to 10000 | 100 to 1000 | – | –
CC1(NC(=O)Nc2ccc3ncc(-c4cnn(C5CCNCC5)c4)cc3n2)CCCC1 [Compound 0254] | < 100 | 100 to 1000 | – | –
CN(C)CCCNC(=O)Nc1ccc2ncc(-c3cn[nH]c3)cc2n1 [Compound 0106] | 1000 to 10000 | 100 to 1000 | – | –
O=C(Nc1ccc2ncc(-c3cn[nH]c3)cc2n1)NC1CCCCC1 [Compound 0061] | < 100 | < 100 | – | –
O=C(Nc1ccc2ncc(-c3cn[nH]c3)cc2n1)N[C@H]1CCc2ccccc21 [Compound 0077] | 100 to 1000 | < 100 | – | –
CC1(NC(=O)Nc2ccc3ncc(N4CCOCC4)cc3n2)CCCC1 [Compound 0253] | < 100 | < 100 | – | –
CCN(CC)CCn1cc(-c2cnc3ccc(NC(=O)NC4CCCC4)nc3c2)cn1 [Compound 0025] | < 100 | 100 to 1000 | – | –
COc1ccc(Nc2cnc3ccc(NC(=O)NC4CCCC4)nc3c2)cc1 [Compound 0028] | < 100 | > 10000 | – | –
O=C(Nc1ccc2ncc(-c3cn[nH]c3)cc2n1)N[C@@H]1CCNC1 [Compound 0073] | 1000 to 10000 | < 100 | – | –
O=C(Nc1ccc2ncc(-c3ccsc3)cc2n1)NC1CCCC1 [Compound 0118] | 100 to 1000 | < 100 | – | –
O=C(Nc1ccc2ncc(-c3cnn(CCN4CCOCC4)c3)cc2n1)NC1CCCC1 [Compound 0004] | < 100 | < 100 | – | –
CCN1CCC(n2cc(-c3cnc4ccc(NC(=O)NC5CCCC5)nc4c3)cn2)CC1 [Compound 0230] | < 100 | 100 to 1000 | – | –
O=C(Nc1ccc2ncccc2n1)NC1CCCC1 [Compound 0116] | 100 to 1000 | 1000 to 10000 | – | –
CC(C)(C)NC(=O)Nc1ccc2ncc(-c3cnn(CCCN4CCOCC4)c3)cc2n1 [Compound 0185] | 1000 to 10000 | 100 to 1000 | – | –
